Measurements reported in ChEMBL document CHEMBL3639166, “Heteroaryloxyheterocyclyl compounds as PDE10 inhibitors” (2013).

Molecular target: T1, cAMP and cAMP-inhibited cGMP 3',5'-cyclic phosphodiesterase 10A (Rattus norvegicus, UniProt Q9QYJ6)
T1 sequence (Q9QYJ6 whole entry): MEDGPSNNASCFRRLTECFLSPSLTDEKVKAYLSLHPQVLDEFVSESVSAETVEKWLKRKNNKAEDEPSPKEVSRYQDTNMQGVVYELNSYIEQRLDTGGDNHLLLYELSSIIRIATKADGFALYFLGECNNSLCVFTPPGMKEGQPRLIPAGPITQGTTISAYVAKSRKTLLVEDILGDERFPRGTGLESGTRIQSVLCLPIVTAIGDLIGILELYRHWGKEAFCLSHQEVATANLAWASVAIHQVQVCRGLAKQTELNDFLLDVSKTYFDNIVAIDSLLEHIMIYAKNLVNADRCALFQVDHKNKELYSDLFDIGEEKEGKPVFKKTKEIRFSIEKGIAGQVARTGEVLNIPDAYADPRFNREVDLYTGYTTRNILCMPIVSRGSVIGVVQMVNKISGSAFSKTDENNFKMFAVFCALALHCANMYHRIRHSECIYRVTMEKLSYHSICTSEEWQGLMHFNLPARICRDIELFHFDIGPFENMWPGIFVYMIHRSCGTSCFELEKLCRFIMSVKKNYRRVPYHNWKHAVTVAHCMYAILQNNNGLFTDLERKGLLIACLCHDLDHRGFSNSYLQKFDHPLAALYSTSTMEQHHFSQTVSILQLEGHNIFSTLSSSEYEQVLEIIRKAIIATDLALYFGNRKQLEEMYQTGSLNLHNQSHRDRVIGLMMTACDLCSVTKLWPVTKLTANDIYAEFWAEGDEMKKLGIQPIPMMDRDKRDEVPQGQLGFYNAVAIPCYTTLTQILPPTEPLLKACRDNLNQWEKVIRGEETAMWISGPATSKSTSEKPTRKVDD
Assay: Enzyme Inhibition Assay: Enzyme activity: An IMAP TR-FRET assay was used to analyze the enzyme activity (Molecular Devices Corp., Sunnyvale, Calif).

IC50 | SMILES
158 nM | COC(=O)N1CCC(c2nccnc2OC2CN(c3ccc4ccccc4n3)C2)CC1
208 nM | CS(=O)(=O)N1CCC(c2nccnc2OC2CN(c3ccc4ccccc4n3)C2)CC1
1080 nM | O=C(c1ccc2ccccc2n1)N1CCC(Oc2nccnc2N2CCOCC2)CC1
6.68 nM | COc1cccc(-c2nc3ccccc3nc2OC2CN(c3ccc4ccccc4n3)C2)c1
5.5 nM | COc1ncccc1-c1nc2ccccc2nc1OC1CN(c2ccc3ccccc3n2)C1
8.45 nM | OCc1ccc(-c2nccc(OC3CN(c4ccc5ccccc5n4)C3)n2)cc1
4.23 nM | FC1(F)CCN(c2nccnc2OC2CN(c3ccc4ccccc4n3)C2)CC1
95.3 nM | FC1(F)CCN(c2nccnc2OC2CN(c3ccc4ccccc4n3)C2)C1
92.1 nM | FC1(F)CCCN(c2nccnc2OC2CN(c3ccc4ccccc4n3)C2)C1
144 nM | Fc1cnc(OC2CN(c3ccc4ccccc4n3)C2)c(N2CCC(F)(F)CC2)c1
35.9 nM | FC1(F)CCN(c2cccnc2OC2CN(c3ccc4ccccc4n3)C2)CC1
67.8 nM | CC(=O)N1CCC(c2cc(C)cnc2OC2CN(c3ccc4ccccc4n3)C2)CC1
64.8 nM | CC(=O)N1CCC(c2cc(F)cnc2OC2CN(c3ccc4ccccc4n3)C2)CC1
68.8 nM | CC(=O)N1CCC(c2cccnc2OC2CN(c3ccc4ccccc4n3)C2)CC1
582 nM | CC(=O)N1CC=C(c2nccnc2OC2CN(C(=O)OCc3ccccc3)C2)CC1
1640 nM | CC(=O)N1CCC(c2nccnc2OC2CCN(c3ccc4ccccc4n3)CC2)CC1
10.4 nM | CC(=O)N1CC=C(c2nccnc2OC2CN(C(=O)c3nc4ccccc4[nH]3)C2)CC1
41 nM | CC(=O)N1CCCC(c2cccnc2OC2CN(C(=O)c3ccccn3)C2)C1 (stereo not given)
41.4 nM | CC(C)C(=O)N1CCCC(c2cccnc2OC2CN(C(=O)c3nc4ccccc4[nH]3)C2)C1 (stereo not given)
210 nM | CC(=O)N1CC=C(c2nccnc2OC2CN(C(=O)c3ccc[nH]3)C2)CC1
282 nM | COCC#Cc1nccnc1OC1CN(c2ccc3ccccc3n2)C1
12 nM | c1cnc(OC2CN(c3ccc4ccccc4n3)C2)c(N2CCOCC2)c1
10200 nM | CC(=O)N1CCC(c2cccnc2OC2CN(C(=O)OC(C)(C)C)C2)CC1
0.864 nM | O=C(c1nc2ccccc2[nH]1)N1CC(Oc2ncccc2C2=CCOCC2)C1

IC50 | SMILES
21.1 nM | O=C(c1nc2ccccc2[nH]1)N1CC(Oc2ncccc2[C@H]2CC[C@@H](O)CC2)C1
7940 nM | CC(=O)N1CCCC(c2cccnc2OC2CN(C(=O)c3cc(C)c[nH]3)C2)C1 (stereo not given)
250 nM | CC(=O)N1CC=C(c2nccnc2OC2CN(C(=O)c3cc(C)c[nH]3)C2)CC1
886 nM | CC(=O)N1CCCC(c2cccnc2OC2CN(C(=O)c3cc4ccccc4[nH]3)C2)C1 (stereo not given)
76.7 nM | CC(O)C1CCN(c2ccnnc2OC2CN(c3ccc4ccccc4n3)C2)CC1 (stereo not given)
990 nM | O=C(c1ccncn1)N1CC(Oc2ncccc2C2=CCOCC2)C1
3670 nM | O=C(c1ncc[nH]1)N1CCC(Oc2ncccc2C2CCOCC2)CC1
4260 nM | O=C(c1ccc[nH]1)N1CCC(Oc2ncccc2C2CCOCC2)CC1
1260 nM | O=C(c1ccccn1)N1CCC(Oc2ncccc2C2CCOCC2)CC1
1180 nM | Cc1cccc(C(=O)N2CCC(Oc3ncccc3C3CCOCC3)CC2)n1
1650 nM | Cc1ccc(C(=O)N2CCC(Oc3ncccc3C3CCOCC3)CC2)nc1
118 nM | Cc1ccnc(C(=O)N2CCC(Oc3ncccc3C3CCOCC3)CC2)c1
1000 nM | Cc1cccnc1C(=O)N1CCC(Oc2ncccc2C2CCOCC2)CC1
324 nM | O=C(c1nc2ccccc2s1)N1CCC(Oc2ncccc2C2CCOCC2)CC1
126 nM | O=C(c1cc2ccccc2cn1)N1CCC(Oc2ncccc2C2CCOCC2)CC1
8890 nM | O=C(c1cc(Cl)ccn1)N1CCC(Oc2ncccc2C2CCOCC2)CC1
715 nM | O=C(c1nc2ccccc2[nH]1)N1CC[C@H](Oc2ncccc2C2=CCOCC2)C1
767 nM | O=C(c1nc2ccccc2[nH]1)N1CC[C@@H](Oc2ncccc2C2=CCOCC2)C1
884 nM | O=C(c1nc2ccccc2[nH]1)N1CC(Oc2nccnc2C2CCOCC2)C1
116 nM | O=C(c1nc2ccccc2[nH]1)N1CCC(Oc2ncccc2C2CCOCC2)CC1
8340 nM | CC(=O)N1CCCC(c2cccnc2OC2CN(C(=O)c3ccc(C)nc3)C2)C1 (stereo not given)
41800 nM | CC(=O)N1CCCC(c2cccnc2OC2CN(C(=O)CC(C)(C)C)C2)C1 (stereo not given)
139 nM | CC(=O)N1CCC(c2nccnc2OC2CN(C(=O)c3ccc[nH]3)C2)CC1
12300 nM | O=C(c1nc2ccccc2[nH]1)N1CC(Oc2cnccn2)C1

IC50 | SMILES
786 nM | O=C(c1nc2ccccc2[nH]1)N1CC(Oc2nc3ccccc3nc2C2CCOCC2)C1
994 nM | O=C(c1ccc2ccccc2n1)N1CCC(Oc2nccnc2C2CCOCC2)CC1
1230 nM | Cc1cc(-c2cccnc2OC2CCN(C(=O)c3ccc4ccccc4n3)CC2)ccn1
2130 nM | Cc1cc(-c2cccnc2OC2CCN(C(=O)c3nccc4ccccc34)CC2)ccn1
11100 nM | O=C(c1nccc2ccccc12)N1CCC(Oc2ncccc2N2CCOCC2)CC1
1820 nM | O=C(c1nc2ccccc2[nH]1)N1CC[C@@H](Oc2ncccc2C2CCOCC2)C1
409 nM | O=C(c1nc2ccccc2[nH]1)N1CC[C@H](Oc2ncccc2C2CCOCC2)C1
4960 nM | c1ccc2cc(N3CC(Oc4nccnc4C4CCOCC4)C3)ncc2c1
4410 nM | c1ccc2c(N3CC(Oc4nccnc4C4CCOCC4)C3)nccc2c1
331 nM | c1ccc2nc(N3CC(Oc4nccnc4C4CCOCC4)C3)ccc2c1
1330 nM | Cc1ccnc(N2CCC(Oc3nccnc3C3CCOCC3)CC2)c1
1440 nM | Cc1cccc(N2CCC(Oc3nccnc3C3CCOCC3)CC2)n1
568 nM | Cc1cccnc1N1CCC(Oc2ncccc2C2CCOCC2)CC1
236 nM | Cc1ccnc(N2CCC(Oc3ncccc3C3CCOCC3)CC2)c1
1670 nM | Cc1cccc(N2CCC(Oc3ncccc3C3CCOCC3)CC2)n1
2810 nM | c1ccc2c(N3CCC(Oc4nccnc4C4CCOCC4)CC3)nccc2c1
235 nM | c1ccc2cc(N3CCC(Oc4nccnc4C4CCOCC4)CC3)ncc2c1
229 nM | c1ccc2[nH]c(N3CCC(Oc4nccnc4C4CCOCC4)CC3)nc2c1
1810 nM | c1cnc(OC2CCN(c3nccc4ccccc34)CC2)c(C2CCOCC2)c1
199 nM | c1cnc(OC2CCN(c3nc4ccccc4[nH]3)CC2)c(C2CCOCC2)c1
340 nM | c1cnc(O[C@H]2CCN(c3ccc4ccccc4n3)C2)c(C2CCOCC2)c1
2970 nM | c1cnc(O[C@H]2CCN(c3cc4ccccc4cn3)C2)c(C2CCOCC2)c1
2470 nM | c1cnc(O[C@H]2CCN(c3nc4ccccc4[nH]3)C2)c(C2CCOCC2)c1

SMILES | IC50
CC(=O)N1CCC(c2nc3ccccc3nc2OC2CN(c3ccc4ccccc4n3)C2)CC1 | 2.9 nM
O=C1CCC(c2nccnc2OC2CN(C(=O)c3nc4ccccc4[nH]3)C2)CC1 | 114 nM
c1ccc(-c2nccc(OC3CN(c4ccc5ccccc5n4)C3)n2)nc1 | 109 nM
COCC(=O)N1CCC(c2nccnc2OC2CN(c3ccc4ccccc4n3)C2)CC1 | 165 nM
CC(=O)N1CC=C(c2nccnc2OC2CCN(C(=O)c3nc4ccccc4[nH]3)CC2)CC1 | 71.8 nM
CC(=O)N1CCCC(c2cccnc2OC2CN(C(=O)c3nc4ccccc4[nH]3)C2)C1 (stereo not given) | 6.47 nM
CC(=O)N1CCC=C(c2nccnc2OC2CN(C(=O)c3nc4ccccc4[nH]3)C2)C1 | 121 nM
CC(=O)N1CCC(c2cnc(N3CCC(CO)CC3)nc2OC2CN(c3ccc4ccccc4n3)C2)CC1 | 0.39 nM
CC(C)(C)OC(=O)N1CC(Oc2ncccc2[C@H]2CC[C@H](O)CC2)C1 | 15.8 nM
OCC1CCN(c2nccc(OC3CN(c4ccc5ccccc5n4)C3)n2)CC1 | 14.2 nM
O=C(c1nc2ccccc2[nH]1)N1CC[C@@H](Oc2nccnc2C2CCOCC2)C1 | 2780 nM
CC(=O)N1CCC(c2cccnc2OC2CN(C(=O)c3nc4ccccc4[nH]3)C2)CC1 | 102 nM
CC(=O)N1CC=C(c2nccnc2OC2CN(C(=O)c3ccc(C)cn3)C2)CC1 | 1030 nM
O=C(c1ccc2ccccc2n1)N1CCC(Oc2ncccc2C2CCOCC2)CC1 | 809 nM
O=C(c1nccc2ccccc12)N1CCC(Oc2nccnc2C2CCOCC2)CC1 | 7320 nM
Cc1cc(-c2nccnc2OC2CCN(C(=O)c3ccc4ccccc4n3)CC2)ccn1 | 2660 nM
Cc1cc(-c2nccnc2OC2CCN(C(=O)c3nccc4ccccc34)CC2)ccn1 | 3590 nM
O=C(c1nccc2ccccc12)N1CCC(Oc2nccnc2N2CCOCC2)CC1 | 5400 nM
c1cnc(OC2CN(c3ccc4ccccc4n3)C2)c(C2CCOCC2)c1 | 1800 nM
c1ccc(N2CCC(Oc3nccnc3C3CCOCC3)CC2)nc1 | 2390 nM
Cc1ccc(N2CCC(Oc3ncccc3C3CCOCC3)CC2)nc1 | 262 nM
c1ccc2nc(N3CCC(Oc4nccnc4C4CCOCC4)CC3)ccc2c1 | 69.3 nM
c1cnc(OC2CCN(c3cc4ccccc4cn3)CC2)c(C2CCOCC2)c1 | 353 nM
c1cnc(O[C@H]2CCN(c3nccc4ccccc34)C2)c(C2CCOCC2)c1 | 730 nM
